Experimental data published in ChEMBL document CHEMBL3046767, “Antihepatotoxic activity of a sterol glucoside from aerial parts of Clerodendrum phlomidis” (2012).
The source made the active and inactive calls. The calls are words filed in the database; no cut-off is given here.

Key:
Rattus norvegicus [1] = assay: Antihepatotoxic activity Rattus norvegicus albino Wistar (rat) assessed as reduction of CCl4-induced increase of serum SGPT level at 50 mg/kg, po relative to control; type: functional; design: scale not given: the % may be the effect or the level left
Rattus norvegicus [2] = assay: Antihepatotoxic activity Rattus norvegicus albino Wistar (rat) assessed as reduction of CCl4-induced reduction of serum total protein level at 50 mg/kg, po relative to control; type: functional; design: scale not given: the % may be the effect or the level left
Rattus norvegicus [3] = assay: Antihepatotoxic activity Rattus norvegicus albino Wistar (rat) assessed as recovery of CCl4-induced cell damage at 50 mg/kg, po by hematoxylin and eosin staining; type: functional, organism-based; design: dose 50 mg/kg
Rattus norvegicus [4] = assay: Antihepatotoxic activity Rattus norvegicus albino Wistar (rat) assessed as reduction of CCl4-induced increase of serum ALP level at 50 mg/kg, po relative to control; type: functional; design: scale not given: the % may be the effect or the level left
Rattus norvegicus [5] = assay: Antihepatotoxic activity Rattus norvegicus albino Wistar (rat) assessed as reduction of CCl4-induced increase of serum SGOT level at 50 mg/kg, po relative to control; type: functional; design: scale not given: the % may be the effect or the level left

For `C=C(C)C(/C=C/[C@@H](C)[C@H]1CCC2C3CC=C4C[C@@H](O[C@@H]5O[C@H](CO)[C@@H](O)[C@H](O)[C@H]5O)CC[C@]4(C)C3CC[C@@]21C)CC` (stereo not given in full), the Activity (Rattus norvegicus [1]) was 52.25%, the Activity (Rattus norvegicus [2]) was 121.19% and the Activity (Rattus norvegicus [3]) was “Active”. The Activity (Rattus norvegicus [4]) was 74.77% and the Activity (Rattus norvegicus [5]) was 57.71%.
